Experimental data reported in patent US9365541B2, “Compounds for use in the treatment of parasitic diseases” (IRBM—SCIENCE PARK S.P.A., priority 2012, dated 2016).

Columns and labels:
[1] = tested on: Plasmodium falciparum 3D7; assay: P. falciparum growth inhibition assay (Pf-LDH); format: cell-based; conditions: Plasmodium falciparum, Erythrocyte; P. falciparum 3D7 infected erythrocytes, 72 h incubation, PfLDH readout
Procedure: Basic culture of Plasmodium falciparum 3D7 parasites (Malaria Research and Reference Reagent Resource Center (MR4), MR4 Number: MRA-102).
Starting with a culture with a parasitemia of about 10% (and 5% hematocrit), 0.5 ml of the culture is placed in a fresh 100 mm petri dish with 0.95 ml of fresh erythrocytes (50% hematocrit) and 8.55 ml of culture medium, giving a new starting parasitemia of 0.5%. The petri dish is then incubated at 37° C. in a humidified gas-tight plastic box flushed with a gas mixture consisting of 93% N2, 4% CO2, and 3% O2. The culture medium is changed daily. The supernatant is removed by gently tipping the dish without disturbing the settled cells and aspirating the medium with a Pasteur pipette connected to a vacuum pump. A small amount of the concentrated cells is taken to prepare a blood smear for determination of the parasitemia. Normally, the cultures are split twice a week. If the parasites are growing very slowly then fresh erythrocytes are added to the culture no later than after 7 days. The cultures are then split 1:2 if the parasitemia is lower than 0.5%. To avoid the necessity of daily medium change on weekends, a culture with a 2.5% hematocrit and 0.1-0.2% parasitemia is set up and can be left for 3 days without medium change.
Standard medium consists of RPMI 1640, supplemented with 25 mM HEPES, 24 mM NaHCO3, 0.36 mM hypoxanthine, 100 μg/ml Neomycin, 5 g/1 Albumax® II, and washed human red blood cells (rbcs) A+.
P. falciparum Growth Inhibition Assay (Pf-LDH)
Compounds of the invention were assessed for in vitro antimalarial activity against a cloroquine sensitive (3D7) strain of the malaria parasite Plasmodium falciparum, using a lactate dehydrogenase (PfLDH) assay.
EC50 Determination by Pf-LDH Assay
384 plates (where compounds to be tested are dispensed) with 25 μl of parasite inoculum (parasitemia: 0.25%, hematocrit: 2%) are incubated at 37° C. in an atmosphere of 4% CO2, 3% O2, 93% N2. After 72 h of incubation, plates are frozen at −70° C. overnight and thawed at room temperature for at least 4 h. To evaluate PfLDH activity, 70 μl of freshly made reaction mix (143 mM sodium L-lactate, 143 μM 3-acetyl pyridine adenine dinucleotide (APAD), 178.75 μM Nitro Blue tetrazolium chloride (NBT), 286 μg/ml diaphorase (2.83 U/ml), 0.7% Tween 20, 100 mM Tris-HCl pH 8.0) is dispensed using a Multidrop Combi dispenser. Plates are shaken to ensure mixing and absorbance at 650 nm is monitored in a plate reader after 10 min of incubation at room temperature.
Negative controls (0% Effect) are produced by addition of DMSO to the proper wells.
Positive controls (100% Effect) are produced by addition of 150 nM Artemisinin (Sigma-Aldrich, 361593)
After result normalization using positive and negative controls, compound potency is determined by fitting the following equation: % inh=Ymin+(Ymax−Ymin)/(1+(X/EC50)^slope)) Where: • Ymin=minimum percentage effect • Ymax=maximum percentage effect • EC50=the concentration of the compound at which 50% effect is reached • Slope=the slope of the curve calculated at the EC50 Histone Hyperacetylation and Immunodetection of Altered Histone Modifications Assay

human HDAC1 = target: T1, human HDAC1 (Homo sapiens, UniProt Q13547); assay: Homo sapiens HDAC1 inhibition assay (Fluor-de-Lys, enzymatic); format: biochemical; conditions: human HDAC enzymatic assay; read-out: hHDAC IC50
T1 construct: made in house; host or cells: HeLa (ATCC CCL-2), mammalian cells
T1 sequence (Q13547 whole entry): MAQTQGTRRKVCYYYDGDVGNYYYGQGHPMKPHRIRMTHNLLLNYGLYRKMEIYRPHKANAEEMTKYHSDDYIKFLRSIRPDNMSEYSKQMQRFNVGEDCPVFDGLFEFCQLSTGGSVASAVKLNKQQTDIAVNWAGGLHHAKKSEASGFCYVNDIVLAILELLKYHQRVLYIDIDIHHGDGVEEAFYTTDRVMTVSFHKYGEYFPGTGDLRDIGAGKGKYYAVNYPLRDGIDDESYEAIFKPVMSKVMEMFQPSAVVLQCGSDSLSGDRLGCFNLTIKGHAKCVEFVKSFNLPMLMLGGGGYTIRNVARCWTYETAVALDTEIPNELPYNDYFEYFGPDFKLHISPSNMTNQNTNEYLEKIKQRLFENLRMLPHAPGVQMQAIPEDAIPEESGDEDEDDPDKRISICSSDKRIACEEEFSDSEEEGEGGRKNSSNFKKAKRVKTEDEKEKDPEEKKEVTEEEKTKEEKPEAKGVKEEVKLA
Procedure: Biology Homo sapiens HDAC1 Inhibition Assay Overview:
The aim of the assay is to evaluate the inhibition of the deacetylase activity of human HDAC1. To such goal an acetylated substrate is added to the enzyme mix; the resulting enzymatic product is converted to a fluorescent molecule by the addition the enzyme trypsine (developer solution). Fluorescence intensity is inversely proportional to the rate of inhibition of the enzyme (as indicated in the material section below).
Reagents of the HDAC Fluorescent Activity Assay are purchased from Enzo Life Sciences (http://www.enzolifesciences.com/BML-AK500/fluor-de-lys-hdac-fluorometric-activity-assay-kit/) and feature the Fluor-de-Lys™ Substrate/Developer System.
c) Trichostatin A (TSA) Stock
TSA (Sigma-Aldrich, T8552) is provided as a 10 mM stock solution in 100% dimethylsulfoxide (DMSO).
Diluted Substrate Solution
The final concentration in the assay is 20 μM.
Diluted Developer Solution
2 μM [final] TSA to this solution increases its ability to stop the reaction.
The HDAC1 enzyme is diluted in assay buffer prior to each use from a fresh aliquot of enzyme.
The final concentration in the assay is 1-2 nM.
Test compounds should be prepared in 100% DMSO and transferred to the assay by a nano volume dispenser to reach the appropriate concentration and the appropriate DMSO concentration (0.25%) in the reaction.

EC50 [1] | IC50 (human HDAC1) | Compound
< 1000 nM | < 1000 nM | CNC(=O)CCCCC[C@H](NC(=O)Cn1cc2ccccc2n1)c1ncc(-c2ccc3ccncc3c2)[nH]1 [Entry 208, (S)-7-(2-(2H-indazol-2-yl)acetamido)-7-(5-(isoquinolin-7-yl)-1H-imidazol-2-yl)-N-methyl-heptanamide]
1000 to 5000 nM | 1000 to 5000 nM | CNC(=O)CCCCC[C@H](NC(=O)c1cncs1)c1ncc(-c2ccc3cc[nH]c3c2)[nH]1 [Entry 173, (S)-N-(1-(5-(1H-indol-6-yl)-1H-imidazol-2-yl)-7-(methylamino)-7-oxoheptyl)thiazole-5-carboxamide]
1000 to 5000 nM | 1000 to 5000 nM | CNC(=O)CCCCC[C@H](NC(=O)c1cncs1)c1ncc(-c2ccc(-c3ccccn3)cc2)[nH]1 [Entry 139, (S)-N-(7-(methylamino)-7-oxo-1-(5-(4-(pyridin-2-yl)phenyl)-1H-imidazol-2-yl)heptyl)thiazole-5-carboxamide]
1000 to 5000 nM | < 1000 nM | CNC(=O)CCCCC[C@H](NC(=O)C1CCN(C)CC1)c1ncc(-c2ccc3ccccc3c2)[nH]1 [Entry 5, (S)-1-methyl-N-(7-(methylamino)-1-(5-(naphthalen-2-yl)-1H-imidazol-2-yl)-7-oxo-heptyl)piperidine-4-carboxamide]
1000 to 5000 nM | > 5000 nM | CNC(=O)CCCCC[C@H](NC(=O)c1cscn1)c1ncc(-c2ccc3ccncc3c2)[nH]1 [Entry 47, (S)-N-(1-(5-(isoquinolin-7-yl)-1H-imidazol-2-yl)-7-(methylamino)-7-oxoheptyl)thiazole-4-carboxamide]
1000 to 5000 nM | < 1000 nM | CNC(=O)CCCCC[C@H](NC(=O)[C@H]1CCN(C)C1)c1ncc(-c2ccc3ccccc3c2)[nH]1 [Entry 4, (S)-1-methyl-N-((S)-7-(methylamino)-1-(5-(naphthalen-2-yl)-1H-imidazol-2-yl)-7-oxo-heptyl)pyrrolidine-3-carboxamide]
1000 to 5000 nM | 1000 to 5000 nM | CNC(=O)CCCCC[C@H](NC(=O)Cc1cnccn1)c1ncc(-c2cc3ccccc3nc2OC)[nH]1 [Entry 76]
< 1000 nM | 1000 to 5000 nM | CNC(=O)CCCCC[C@H](NC(=O)c1cncs1)c1ncc(-c2ccc3cnccc3c2)[nH]1 [Entry 138, (S)-N-(1-(5-(isoquinolin-6-yl)-1H-imidazol-2-yl)-7-(methylamino)-7-oxoheptyl)thiazole-5-carboxamide]
< 1000 nM | < 1000 nM | CNC(=O)CCCCC[C@H](NC(=O)Cc1c(C)[nH]c2ccc(OC)cc12)c1ncc(-c2ccc3ccccc3c2)[nH]1 [Entry 75, (S)-7-(2-(5-methoxy-2-methyl-1H-indol-3-yl)acetamido)-N-methyl-7-(5-(naphthalen-2-yl)-1H-imidazol-2-yl)heptanamide]
< 1000 nM | 1000 to 5000 nM | CNC(=O)CCCCC[C@H](NC(=O)c1ccns1)c1ncc(-c2ccc(-c3ccn(C)n3)cc2)[nH]1 [Entry 16, (S)-N-(1-(5-(4-(1-methyl-1H-pyrazol-3-yl)phenyl)-1H-imidazol-2-yl)-7-(methylamino)-7-oxoheptyl)isothiazole-5-carboxamide]
< 1000 nM | 1000 to 5000 nM | CNC(=O)CCCCC[C@H](NC(=O)c1cncs1)c1ncc(-c2ccc3c(cnn3C)c2)[nH]1 [Entry 191, (S)-N-(1-(5-(1-methyl-1H-indazol-5-yl)-1H-imidazol-2-yl)-7-(methylamino)-7-oxoheptyl)thiazole-5-carboxamide]
> 5000 nM | > 5000 nM | CNC(=O)CCCCC[C@H](NC(=O)c1cscn1)c1ncc(-c2ccc(-c3ccn(C)n3)cc2)[nH]1 [Entry 209, (S)-N-(1-(5-(4-(1-methyl-1H-pyrazol-3-yl)phenyl)-1H-imidazol-2-yl)-7-(methylamino)-7-oxoheptyl)thiazole-4-carboxamide]
1000 to 5000 nM | > 5000 nM | CNC(=O)CCCCC[C@H](NC(=O)c1nnc(C)o1)c1ncc(-c2ccc3ccccc3c2)[nH]1 [Entry 203, (S)-5-methyl-N-(7-(methylamino)-1-(5-(naphthalen-2-yl)-1H-imidazol-2-yl)-7-oxoheptyl)-1,3,4-oxadiazole-2-carboxamide]
1000 to 5000 nM | < 1000 nM | CNC(=O)CCCCC[C@H](NC(=O)C1CN(C)C1)c1ncc(-c2ccc3ccccc3c2)[nH]1 [Entry 26]
1000 to 5000 nM | 1000 to 5000 nM | CNC(=O)CCCCC[C@H](NC(=O)C1CC(=O)Nc2ccccc21)c1ncc(-c2ccc(-n3cccn3)cc2)[nH]1 (stereo partly drawn) [Entry 61, N-((S)-1-(5-(4-(1H-pyrazol-1-yl)phenyl)-1H-imidazol-2-yl)-7-(methylamino)-7-oxoheptyl)-2-oxo-1,2,3,4-tetrahydroquinoline-4-carboxamide]
< 1000 nM | 1000 to 5000 nM | CNC(=O)CCCCC[C@H](NC(=O)c1cnn(C(C)C)c1)c1ncc(-c2ccc(-c3ccn(C)n3)cc2)[nH]1 [Entry 50, (S)-1-isopropyl-N-(1-(5-(4-(1-methyl-1H-pyrazol-3-yl)phenyl)-1H-imidazol-2-yl)-7-(methylamino)-7-oxoheptyl)-1H-pyrazole-4-carboxamide]
< 1000 nM | < 1000 nM | Cn1ccc(-c2ccc(-c3cnc([C@H](CCCCCC(N)=O)NC(=O)c4cncs4)[nH]3)cc2)n1 [Entry 218, (S)-N-(7-amino-1-(5-(4-(1-methyl-1H-pyrazol-3-yl)phenyl)-1H-imidazol-2-yl)-7-oxoheptyl)thiazole-5-carboxamide]
1000 to 5000 nM | > 5000 nM | CNC(=O)CCCCC[C@H](NC(=O)c1cnn(C(C)C)c1)c1ncc(-c2ccc(-c3ccn(C)n3)cc2)o1 [Entry 223, (S)-1-isopropyl-N-(1-(5-(4-(1-methyl-1H-pyrazol-3-yl)phenyl)oxazol-2-yl)-7-(methylamino)-7-oxoheptyl)-1H-pyrazole-4-carboxamide]
1000 to 5000 nM | > 5000 nM | CNC(=O)CCCCC[C@H](NC(=O)CCN1CCOCC1)c1ncc(-c2cc3ccccc3nc2OC)[nH]1 [Entry 130]
1000 to 5000 nM | < 1000 nM | CNC(=O)CCCCC[C@H](NC(=O)Cn1c(=O)oc2ccccc21)c1ncc(-c2ccc3ccccc3c2)[nH]1 [Entry 74]
> 5000 nM | > 5000 nM | CNC(=O)CCCCC[C@H](NC(=O)C1(C)CCCO1)c1ncc(-c2ccc(-c3ccn(C)n3)cc2)[nH]1 (stereo partly drawn) [Entry 123, 2-methyl-N-((S)-1-(5-(4-(1-methyl-1H-pyrazol-3-yl)phenyl)-1H-imidazol-2-yl)-7-(methylamino)-7-oxoheptyl)tetra-hydrofuran-2-carboxamide]
1000 to 5000 nM | > 5000 nM | CNC(=O)CCCCC[C@H](NC(=O)c1ccn(C(F)F)n1)c1ncc(-c2ccc(-c3ccn(C)n3)cc2)[nH]1 [Entry 214, (S)-1-(difluoromethyl)-N-(1-(5-(4-(1-methyl-1H-pyrazol-3-yl)phenyl)-1H-imidazol-2-yl)-7-(methylamino)-7-oxoheptyl)-1H-pyrazole-3-carboxamide]
